Values after ≈ are worked out from the molar mass of the structure shown. Bridge positions count the residues as written; N and C are the ends. Square brackets hold non-standard residues; d marks the D form. Peptide text beside a SMILES is read from it. * marks the point of attachment. Octanoyl(3R-OH) = CCCCC[C@@H](O)CC(=O)*; Myristoyl = CCCCCCCCCCCCCC(=O)*; Orn = NCCC[C@H](N)C(=O)O; Dab = NCC[C@H](N)C(=O)O; Dap = NC[C@H](N)C(=O)O
What was measured:
HeLa cells = experiment: Cytotoxicity assay (CCK-8); assay type: cell-based, human; conditions: 48 h
Experimental: The cytotoxicity of each synAQU peptide was assessed using a cell counting kit‐8 (CCK‐8) assay. HeLa cells were first seeded in a 96‐well flat‐bottom microtiter plate with a density of ∼5000 cells per well and incubated in the DMEM medium supplemented with 10% FBS at 37 °C with 5% CO2 for 24 h. […] All cytotoxicity experiments were done in triplicate (n = 3) and repeated two independent times (n = 2).

[1] = tested on: Candida albicans ATCC 10231; experiment: MIC assay (YPD broth); assay type: cell-based; conditions: ATCC 10231, 16 h
Experimental: (§1) All MIC assays were performed two independent times (n = 2) in 96‐well plates using a broth micro‐dilution method. The lowest concentration of that inhibited visible microbial growth was recorded as the MIC value.
For fungal strains, overnight cultures were diluted 2000‐fold in YPD broth. 100 µL of diluted cells was mixed with 100 µL of YPD broth containing each peptide ranging from […] 64 to 0.125 µg mL^−1 at 2‐fold serial dilutions.

[2] = tested on: Staphylococcus aureus USA300; experiment: microbe, parasite or virus in culture; assay type: cell-based; conditions: USA300, 16 h
Experimental: as §1
(§2) For most of bacterial strains, overnight cultures were diluted 5000‐fold in LB broth. For E. faecium and S. aureus, overnight cultures were diluted 1000‐ and 10000‐fold in LB broth, respectively. 100 µL of diluted cells was mixed with 100 µL of LB broth containing each peptide ranging from 64 to 0.125 µg mL^−1 at 2‐fold serial dilutions.

[3] = tested on: Klebsiella pneumoniae CRKP 5452; experiment: microbe, parasite or virus in culture; assay type: cell-based; conditions: for MIC (μg/mL) K. pneumoniae CRKP 5452: CRKP 5452, 16 h
Experimental: as §1, §2

[4] = tested on: Streptococcus pyogenes ATCC 19615; experiment: microbe, parasite or virus in culture; assay type: cell-based; conditions: ATCC 19615, 16 h
Experimental: as §1, §2

[5] = tested on: Acinetobacter baumannii 1104008; experiment: microbe, parasite or virus in culture; assay type: cell-based; conditions: for MIC (μg/mL) A. baumannii 1104008: 1104008, 16 h
Experimental: as §1, §2

[6] = tested on: Acinetobacter baumannii P53; experiment: microbe, parasite or virus in culture; assay type: cell-based; conditions: Acinetobacter baumannii, P53; Table S11; LB broth, 37 °C, 16 h, n = 2
Experimental: as §1, §2

[7] = tested on: Vibrio alginolyticus XSBZ14; experiment: microbe, parasite or virus in culture; assay type: cell-based; conditions: Vibrio alginolyticus, XSBZ14, 16 h, read-out: MIC Vibrio alginolyticus XSBZ14
Experimental: as §1, §2

[8] = tested on: Salmonella enterica ATCC 14028; experiment: microbe, parasite or virus in culture; assay type: cell-based; conditions: Salmonella enterica, ATCC14028, 16 h, read-out: MIC Salmonella enterica ATCC 14028
Experimental: as §1, §2

[9] = tested on: Pseudomonas aeruginosa PAO1; experiment: microbe, parasite or virus in culture; assay type: cell-based; conditions: Pseudomonas aeruginosa, PAO1; Table S11; LB broth, 37 °C, 16 h, n = 2
Experimental: as §1, §2

[10] = tested on: Klebsiella pneumoniae CRKP HS11286; experiment: microbe, parasite or virus in culture; assay type: cell-based; conditions: Klebsiella pneumoniae, CRKPHS11286, 16 h, read-out: MIC Klebsiella pneumoniae CRKP HS11286
Experimental: as §1, §2

[11] = tested on: Klebsiella pneumoniae NCTC 5056; experiment: microbe, parasite or virus in culture; assay type: cell-based; conditions: Klebsiella pneumoniae, NCTC5056, 16 h, read-out: MIC Klebsiella pneumoniae NCTC 5056
Experimental: as §1, §2

[12] = tested on: Acinetobacter baumannii ATCC 19606; experiment: microbe, parasite or virus in culture; assay type: cell-based; conditions: Acinetobacter baumannii, ATCC19606; Table S11; LB broth, 37 °C, 16 h, n = 2
Experimental: as §1, §2

[13] = tested on: Salmonella typhimurium LXX; experiment: microbe, parasite or virus in culture; assay type: cell-based; conditions: Salmonella enterica, TYPHIMURIUM, 16 h, read-out: MIC Salmonella typhimurium LXX
Experimental: as §1, §2

[14] = tested on: Acinetobacter baumannii ATCC 17978; experiment: microbe, parasite or virus in culture; assay type: cell-based; conditions: Acinetobacter baumannii, ATCC17978; Table S11; LB broth, 37 °C, 16 h, n = 2
Experimental: as §1, §2

[15] = tested on: Klebsiella pneumoniae ATCC 13883; experiment: microbe, parasite or virus in culture; assay type: cell-based; conditions: Klebsiella pneumoniae, ATCC13883, 16 h, read-out: MIC Klebsiella pneumoniae ATCC 13883
Experimental: as §1, §2

[16] = tested on: Pseudomonas aeruginosa ATCC 9027; experiment: microbe, parasite or virus in culture; assay type: cell-based; conditions: Pseudomonas aeruginosa, ATCC9027; Table S11; LB broth, 37 °C, 16 h, n = 2
Experimental: as §1, §2

Shigella Castellani LXX = experiment: MIC assay (broth micro-dilution); assay type: cell-based; conditions: Shigella; Table S11; LB broth, 37 °C, 16 h, n = 2
Experimental: as §1, §2

SMILES | MIC (μg/mL) Hela (HeLa cells) [µg/mL] | MIC (μg/mL) C. albicans ATCC 10231 [1] [µg/mL] | MIC (μg/mL) S. aureus USA300 [2] [µg/mL] | MIC (μg/mL) K. pneumoniae CRKP 5452 [3] [µg/mL] | MIC (μg/mL) S. pyogenes ATCC 19615 [4] [µg/mL] | MIC (μg/mL) A. baumannii 1104008 [5] [µg/mL] | MIC [6] [µg/mL] | MIC [7] [µg/mL] | MIC [8] [µg/mL] | MIC [9] [µg/mL] | MIC ([3]; Klebsiella pneumoniae, CRKP5452, Table S11, LB broth, 37 °C, 16 h, n = 2) [µg/mL] | MIC [10] [µg/mL] | MIC [11] [µg/mL] | MIC ([5]; Acinetobacter baumannii, 1104008, Table S11, LB broth, 37 °C, 16 h, n = 2) [µg/mL] | MIC [12] [µg/mL] | MIC [13] [µg/mL] | MIC [14] [µg/mL] | MIC [15] [µg/mL] | MIC [16] [µg/mL] | MIC (Shigella Castellani LXX) [µg/mL]
CCCCC[C@@H](O)CC(=O)N[C@@H](CN)C(=O)N[C@@H](Cc1ccccc1)C(=O)N[C@H]1CCNC(=O)[C@H](CC(=O)O)NC(=O)[C@H](C(C)C)NC(=O)[C@@H](CC(C)C)NC(=O)[C@H](CN)NC(=O)[C@@H](Cc2ccccc2)NC(=O)[C@H]([C@@H](C)O)NC1=O [synAQU3-C3] ({Octanoyl(3R-OH)}-[Dap]F[Dab]T[dF][Dap][dL]VD; lactam 3-C (inferred)) | > 64 | > 64 | > 64 | > 64 | > 64 | > 64 | – | – | – | – | – | – | – | – | – | – | – | – | – | –
C[C@@H](O)[C@H]1C(=O)N2C(C(=O)O)=C(S[C@@H]3CN[C@H](C(=O)N(C)C)C3)[C@H](C)[C@H]12 [Meropenem, reference compound] | – | – | – | – | – | – | 32 (≈ 83.4 µM) | < 0.125 | 0.125 (≈ 0.326 µM) | 16 (≈ 41.7 µM) | 16 (≈ 41.7 µM) | 8 (≈ 20.9 µM) | 0.125 (≈ 0.326 µM) | 16 (≈ 41.7 µM) | 0.5 (≈ 1.3 µM) | 0.125 (≈ 0.326 µM) | 0.25 (≈ 0.652 µM) | < 0.125 | 0.25 (≈ 0.652 µM) | 0.125 (≈ 0.326 µM)
CCCCC[C@@H](O)CC(=O)N[C@@H](CN)C(=O)N[C@@H](Cc1ccccc1)C(=O)N[C@@H](CCN)C(=O)N[C@H](C(=O)N[C@H](Cc1ccccc1)C(=O)N[C@@H](CN)C(=O)N[C@H](CC(C)C)C(=O)N[C@H](C(=O)N[C@@H](CC(=O)O)C(=O)O)C(C)C)[C@@H](C)O [synAQU3-L] ({Octanoyl(3R-OH)}-[Dap]F[Dab]T[dF][Dap][dL]VD-OH) | > 64 | > 64 | > 64 | > 64 | > 64 | > 64 | – | – | – | – | – | – | – | – | – | – | – | – | – | –
CCCCCCCCCCCCCC(=O)N[C@@H](Cc1ccccc1)C(=O)N[C@@H](CCCN)C(=O)N[C@@H](CCCN)C(=O)N[C@@H](C(=O)N[C@H](C(=O)N[C@@H](CC(C)C)C(=O)N[C@H](Cc1ccc(O)cc1)C(=O)N[C@@H](CCN)C(=O)NCC(=O)O)[C@@H](C)CC)C(C)C [synAQU2-L] (Myristoyl-F[Orn][Orn][dV]IL[dY][Dab]G-OH) | > 64 | > 64 | > 64 | > 64 | > 64 | > 64 | – | – | – | – | – | – | – | – | – | – | – | – | – | –

Source: paper PMC12677607, “Identification of a Pair of Linear or Cyclic Naturally Inspired Bifunctional Lipopeptide Antibiotics That Overcome Antimicrobial Resistance” (Advanced Science, 2025)
